# Read-outs that look alike come from different tables or passages of the source. Residues, ends and D or L forms follow the SMILES beside them. *: point of attachment. X1 = NOCC(=O)NCCOCCN*
# How the values were obtained:
# estrogen receptor = molecular target: T1, estrogen receptor (Homo sapiens, UniProt P03372); assay: Estrogen receptor competitive binding assay (3H-E2, MCF-7 cell lysate); details: relative to E/Z-4-OHT = 100
# T1 construct: endogenous in cells; host or cells: MCF-7 cells (ATCC); 225,000 g supernatant of sonicated lysate
# PC3/AR and PC3/neo cells = details: for intracellular distribution of fluorescence over time: 3 h treatment / over time
# Procedure: The fluorescence of doxorubicin can be monitored in order to determine the rate of uptake and intracellular distribution of the anthraquinone fluorophore.
# This cell suspension was dispensed in 2 mL aliquots into 6-well tissue culture plates. Plates were then incubated for 36 h at 37° C. in a humidified atmosphere of 5% CO2 and 95% air. The medium was replaced with 1 mL of phenol red-free RPMI 1640 growth medium supplemented with 10% dextran-coated charcoal stripped FBS prior to addition of the test compound. The appropriate compound was dissolved in DMSO and the concentration was adjusted to 50-200 μM by measuring the solution absorbance at 480 nm. Addition of 10 μL of the appropriate doxorubicin or prodrug solution was followed by incubation at 37° C. as indicated. The drug solution in individual wells was removed at the appropriate time and the cells were washed with 1 mL of the phenol red-free growth medium. The washed cells were then supplemented with 1 mL of phenol-red free growth medium for imaging.
# [1] = Hydrolysis of anthracycline-formaldehyde N-Mannich bases followed by HPLC; details: for stability under AR binding assay conditions: reaction buffer, 30 min incubation at 4° C., HPLC
# Procedure: The area under the curve for the N-Mannich base was determined at each time point and was used to establish the kinetics of decomposition, using regression software. Hydrolysis of AOM-doxsaliform was carried out in pH 8.0 100 mM sodium phosphate buffer at 37° C. AOM-doxsaliform was dissolved in 48.0 μL DMSO and this solution was diluted into phosphate buffer to give 4.8 mL of an […] solution containing 1% DMSO. To this solution was added 6 μL of pig liver esterase (0.8 units/μL; Sigma; Milwaukee, Wis.) to achieve a final concentration of 1.0 units/mL. […] Brief centrifugation served to pellet the insoluble fraction. The drug solution was then transferred to a round bottom flask and concentrated by brief rotary-evaporation at 20° C. Reverse phase HPLC was used to analyze the extent of hydrolysis.
# Hydrolysis of the N-Mannich bases, prepared from either doxorubicin or daunorubicin and the respective amides, at 37° C. in pH 7.4 triethylammonium acetate (TEAA) buffer (20 mM) containing 10-30% MeOH was monitored by reverse phase HPLC. […] Identification of a less robust construct that could be used to rapidly deliver the active Schiff base metabolite of doxorubicin to a growing tumor was undertaken.
# [2] = molecular target: T2, ανβ3 integrin present on viable MDA-MB-435 cells (Homo sapiens, UniProt P05106+P06756); assay: Vitronectin cell adhesion (competition) assay; format: cell-based
# T2 construct: endogenous in cells
# Excerpt: The data are presented as the mean fluorescence for each condition with the background, drug-free cell fluorescence subtracted.
# [3] = test system: Staphylococcus aureus 8325 (susceptible); assay: microbe, parasite or virus in culture
# [4] = test system: Staphylococcus aureus Mu 50 (VISA); details: VISA and hetero VISA strains
# [5] = cell line not stated; cited from earlier work
# human AR = molecular target: T3, human AR (Homo sapiens, UniProt P10275); assay: biochemical; format: binding
# T3 construct: expressed in transfected cells; host or cells: PC3/AR cells (gift of Dr. Kerry Burnstein, University of Miami); cytosolic fraction of sonicated lysate
# T3 sequence (P10275 1-920): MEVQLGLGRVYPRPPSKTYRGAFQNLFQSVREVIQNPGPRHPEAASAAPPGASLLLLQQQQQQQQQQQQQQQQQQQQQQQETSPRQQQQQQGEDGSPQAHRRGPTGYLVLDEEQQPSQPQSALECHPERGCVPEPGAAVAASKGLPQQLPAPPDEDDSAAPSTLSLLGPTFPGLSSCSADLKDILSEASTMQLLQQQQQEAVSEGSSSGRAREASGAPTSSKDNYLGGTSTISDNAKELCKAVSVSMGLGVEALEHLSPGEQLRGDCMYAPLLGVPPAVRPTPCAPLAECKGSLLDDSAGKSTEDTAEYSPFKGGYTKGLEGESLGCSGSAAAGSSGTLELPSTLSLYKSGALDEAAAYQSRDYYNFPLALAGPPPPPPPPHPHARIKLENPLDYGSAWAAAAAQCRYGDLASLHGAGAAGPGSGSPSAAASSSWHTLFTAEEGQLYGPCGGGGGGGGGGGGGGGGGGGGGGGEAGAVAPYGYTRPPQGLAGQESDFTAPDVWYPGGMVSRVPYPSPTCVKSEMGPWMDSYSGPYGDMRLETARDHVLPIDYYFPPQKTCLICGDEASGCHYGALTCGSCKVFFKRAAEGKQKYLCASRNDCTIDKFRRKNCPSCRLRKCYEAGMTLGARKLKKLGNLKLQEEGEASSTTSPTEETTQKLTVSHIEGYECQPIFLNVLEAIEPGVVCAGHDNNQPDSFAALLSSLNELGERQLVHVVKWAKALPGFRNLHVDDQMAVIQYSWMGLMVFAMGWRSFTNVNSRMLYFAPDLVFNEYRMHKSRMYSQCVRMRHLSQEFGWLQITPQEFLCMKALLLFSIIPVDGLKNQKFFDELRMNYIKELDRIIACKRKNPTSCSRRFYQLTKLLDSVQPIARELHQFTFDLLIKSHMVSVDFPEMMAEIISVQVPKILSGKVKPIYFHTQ
# AR-GFP receptor = format: cell-based
# Procedure: PC3 cells were, therefore, grown in 6 well plates and transiently transfected with a plasmid containing the AR-GFP construct obtained from Dr. Arun Roy (UTHSC; San Antonio, Tex.).
# This cell suspension was dispensed in 2 mL aliquots into 6-well tissue culture plates. […] To each solution was added 2 μL of a 800 μg/mL solution of the pEGFP-C2 rcAR plasmid in Millipore water. After gentle mixing, the transfection cocktail was allowed to incubate at room temperature for 40 min. […] The growth medium was again replaced with 1 mL of phenol red-free RPMI supplemented with dextran-coated charcoal-stripped FBS. Candidate AR-GFP expressing cells in each well were identified and marked before an appropriate concentrations of the test compounds were added in 10 μL of sterile DMSO.
# MCF-7 cells = assay: Breast cancer cell growth inhibition, 4 h treatment; details: MCF-7 (ER/AEBS/MDR +/+/−), 4 h treatment
# Procedure: (§1) Breast cancer cell growth inhibition: The ER-targeted DOX-formaldehyde conjugates, 11a-c, were evaluated against four breast cancer cell lines that differ in terms of estrogen receptor and multidrug resistance expression. MCF-7 cells are human breast adenocarcinoma cells that express estrogen receptor at a level of 195,000 sites/cell. MCF-7/Adr cells are an ER-negative, doxorubicin-resistant variant of the parent MCF-7 that express the multidrug resistance (MDR) phenotype. MDA-MB-231 and MDA-MB-435 are ER-negative human breast adenocarcinoma and ductal carcinoma cells, respectively. All cytotoxins were formulated as 100× solutions in DMSO/1% AcOH and delivered to cells as 1% DMSO (0.01% AcOH) in cell culture medium. In all experiments cell treatment lasted 4 h.
# (§2) In Vitro cellular growth inhibition experiments: The IC50 for the targeted formaldehyde conjugates and all control compounds were performed as previously described with minor modifications. All compounds were solubilized in dimethylsulfoxide containing 1% v/v acetic acid. The concentrations of all 100× DMSO/1% AcOH drug solutions was determined spectrophotometrically by absorbance at 480 nm (ε=[…]). […] For every experiment each drug level and controls were performed in hexuplicate; each experiment was performed in at least duplicate. Error bars represent one standard deviation about the mean for the six wells per lane measured for each drug concentration.
# MDA-MB-231 = assay: as above; details: MDA-MB-231 (−/+/−), 4 h treatment
# Procedure: as §1, §2
# MCF-7/Adr cells = assay: as above; details: MCF-7/Adr (−/+/+), 4 h treatment
# Procedure: as §1, §2
# MDA-MB-435 = assay: as above; details: MDA-MB-435 (−/+/−), 4 h treatment
# Procedure: as §1, §2
# [6] = relative binding affinity (Table 4, Example 3 numbering)
structure (smiles),measurement,setting,value
CCC(=C(c1ccc(O)cc1)c1ccc(OCCN(C)CCON=Cc2ccc(O)c(C(N)=O)c2)cc1)c1ccccc1 [10a],RBA^OHT,estrogen receptor,1.7
"CCC(=C(c1ccc(O)cc1)c1ccc(OCCN(C)CCOCCON=Cc2ccc(O)c(C(N)=O)c2)cc1)c1ccccc1 [10b, E/Z-2-Hydroxy-5-[(2-{2-[(2-{4-[1-(4-hydroxy-phenyl)-2-phenyl-but-1-enyl]-phenoxy}-ethyl)-methyl-amino]-ethoxy}-ethoxyimino)-methyl]-benzamide]",RBA^OHT,estrogen receptor,3.3
CCC(=C(c1ccc(O)cc1)c1ccc(OCCN(C)CCOCCOCCON=Cc2ccc(O)c(C(N)=O)c2)cc1)c1ccccc1 [10c],RBA^OHT,estrogen receptor,3.3
"COc1cccc2c1C(=O)c1c(O)c3c(c(O)c1C2=O)C[C@@](O)(C(=O)CO)C[C@@H]3O[C@H]1C[C@H](NCNC(=O)c2ccccc2OCOC(C)=O)[C@H](O)[C@H](C)O1 [AOM-doxsaliform, N-[(2-Acetoxymethyloxy)-benzamidomethyl]-doxorubicin]",intracellular distribution of fluorescence over time,PC3/AR and PC3/neo cells,"accumulate, at least to some extent over time (>3 h), in the nuclei"
same,release of doxorubicin from acetoxymethylene-protected derivative,"[1]; 37° C., pH 7.3 RPMI 1640, 3 h of observation",no hydrolysis was evident
N=C(N)NCCC[C@H](NC(=O)[C@H](CS)NC(=O)[C@H](CC(=O)O)NC(=O)[C@@H](N)CS)C(=O)NCC(=O)N[C@@H](CC(=O)O)C(=O)N[C@@H](CS)C(=O)N[C@@H](Cc1ccccc1)C(=O)N[C@@H](CS)C(=O)NCCOCCNC(=O)CON [Acyclic-RGD-4C-tether 3] (H-CDCRGDCFC-X1),IC50,[2],1 nM
"O=C(O)c1cn(C2CC2)c2cc(N3CCNCC3)c(F)cc2c1=O [Ciprofloxacin, ciprofloxacin]",MIC,[3]; 24 h,6 µM
same,MIC,[3]; 48 h,12 µM
same,antibiotic activity,[4],inactive
"C#Cc1cccc(Nc2ncnc3cc(OCCOC)c(OCCOC)cc23)c1 [Tarceva, reference compound]",IC50,[5],50 nM
"CCCC(=O)OCOc1ccc(COCC#CCN2C(=O)N(c3ccc(C#N)c(C(F)(F)F)c3)C(=O)C2(C)C)cc1C(=O)NCNC1CC(OC2CC(O)(C(=O)CO)Cc3c(O)c4c(c(O)c32)C(=O)c2c(OC)cccc2C4=O)OC(C)C1O (stereo not drawn) [compound 10, N-(5-{4-[3-(4-Cyano-3-trifluoromethyl-phenyl)-5,5-dimethyl-2,4-dioxo-imidazolidin-1-yl]-but-2-ynyloxymethyl}-2-butyryloxymethoxybenzamidomethyl)-doxorubicin]",RBA,human AR; [6],14
same,IC50,"human AR; vs 1.0 nM 3H-Mibolerone, PC3/AR cell lysate, 4° C. (Table 4, Example 3 numbering)",63 nM
same,nuclear translocation of AR-GFP,AR-GFP receptor; 1.0 μM (up to),did not instigate translocation into the nucleus
same,inhibition of the action of 1.0 nM Mibolerone on AR-GFP,AR-GFP receptor; co-treatment with 1.0 nM Mibolerone,did serve to inhibit the action of 1.0 nM Mibolerone
same,intracellular distribution of fluorescence over time,PC3/AR and PC3/neo cells,remains primarily cytosolic over time
same,initial intracellular distribution of fluorescence,"PC3/AR and PC3/neo cells; upon initial treatment, 500 nM",predominantly cytosolic
same,stability under AR binding assay conditions,[1],stable under the assay conditions
"CC/C(=C(\c1ccc(O)cc1)c1ccc(OCCN(C)C)cc1)c1ccccc1 [compound 12, E/Z-4-Hydroxytamoxifen, reference compound]",IC50,MCF-7 cells,300 nM
same,IC50,MDA-MB-231,20000 to 40000 nM
same,IC50,MCF-7/Adr cells,20000 to 40000 nM
same,IC50,MDA-MB-435,20000 to 40000 nM
"COc1cccc2c1C(=O)c1c(O)c3c(c(O)c1C2=O)C[C@@](O)(C(=O)CO)C[C@@H]3OC1C[C@H](NCNC(=O)c2cc(COCC#CCN3C(=O)N(c4ccc(C#N)c(C(F)(F)F)c4)C(=O)C3(C)C)ccc2O)[C@H](O)[C@H](C)O1 (stereo partly drawn) [compound 13, N-(5-{4-[3-(4-Cyano-3-trifluoromethyl-phenyl)-5,5-dimethyl-2,4-dioxo-imidazolidin-1-yl]-but-2-ynyloxymethyl)-2-hydroxy-benzamidomethyl)-doxorubicin]",IC50,human AR,90 nM
same,RBA,human AR,10
same,RBA,human AR; [6],10
same,intracellular distribution of fluorescence over time,PC3/AR and PC3/neo cells,primarily localized to the nucleus
same,stability under AR binding assay conditions,[1],no appreciable hydrolysis
same,stability under AR binding assay conditions,[1]; listed as 9,stable under the assay conditions

# — patent publication US20070275911A1, “Targeted Drug-Formaldehyde Conjugates and Methods of Making and Using the Same” (priority 2003, published 2007)
